“Also recorded” adds a separate entry of the source.

Data set [1] is described as follows: Plasma concentration in mice given drug in drinking water. Type of data set: in vivo. To be noted: 178 μg/mL in drinking water (32 mg/kg/day), 2 weeks, 95% CI in brackets.
In the next data set the test system is JB6. In words: EGF-induced JB6 transformation. In kind it is cell-based, mouse.
Data set [2] has as its system UV induced skin carcinogenesis. As to the kind of experiment: Chronic UV induced skin carcinogenesis model. Type of data set: in vivo, mice.
Data set [3] has as its system UV-induced immunosuppression. In words: UV-induced suppression of contact hypersensitivity (CHS) to DNFB. Type of data set: in vivo, SKH-1 hairless mice. The note with it: single dose i.p. 2 h before UV 224 mJ/cm^2; carvedilol 1 and 10 mg/kg, R-carvedilol 10 mg/kg. On the procedure:
Mice were treated with NS398, CAR or R-CAR (L: 1 mg/kg; H: 10 mg/kg) i.p. 2 hr before UV exposure (224 mJ/cm^2). 24 h after, mice were sensitized with DNFB on back. After 7 days, the right ears were challenged with DNFB. 24 h after, 5 mm punch biopsies were obtained from both ears and weighed. The data are the mean±SE difference in ear biopsy weights (right-left) from n=5 mice (male). *: P<0.05; **: P<0.01.
The data listed are the mean±SE difference in ear biopsy weights (Right-Left) from n=5 mice (male). *: P<0.05; **:P<0.01.
Immunosuppression induced by UV radiation is commonly investigated using the contact hypersensitivity (CHS) response to contact allergens such as the hapten dinitrofluorobenzene (DNFB). […] Thus, carvedilol's skin cancer preventive activity may be partly attributed to its inhibitory effects on UV-induced immunosuppression.
The mice were pretreated with single dose of R-carvedilol (10 mg/kg, i.p.) two hours before UV radiation, and were subject to UV exposure. […] Thus, R-carvedilol, although not a β-blocker, similarly reverses UV-induced immunosuppression.
CHS assay was used to evaluate the effects of a topical delivery system of carvedilol developed by us, named “T-CAR”, on UV-induced immunosuppression. […]

The test system of a further data set is 4T1. In words: Triple negative breast tumor 4T1 in BalB/C mice. Type of data set: in vivo. On the procedure:
To investigate the effect of carvedilol and R-carvedilol on breast cancer growth, the BalB/C mice were treated with the drugs (20 mg/kg/day) in drinking water for two weeks before the mice were inoculated with murine triple negative breast tumor 4T1 in the fourth left mammary fat pad. […] The same experimental model was treated with carvedilol or R-carvedilol, in combination with the anti-PD-1 therapy.

`COc1ccccc1OCCNC[C@@H](O)COc1cccc2[nH]c3ccccc3c12` [R-carvedilol] gave a mean plasma concentration in data set [1] of 25.13 ng/mL. In the data set on JB6, the “inhibitory effects on EGF-induced JB6 transformation” value was “nearly identical inhibitory effects”. Besides, in data set [2] (topical 10 μM in acetone 30 min before UV), the skin tumor development result is given as “strongly inhibited skin tumor development”. Further, in data set [2] (topical, chronic UV), the “delay in tumor formation compared to UV only controls” value was determined as 5 week. In addition, the “UV-induced CHS suppression” value in data set [3] is “reversed UV-induced suppression of CHS; also recorded: significantly reversed UV-induced CHS suppression”. In addition, the tumor growth result in the data set on 4T1 (20 mg/kg/day in drinking water from two weeks before inoculation, monotherapy) is “significantly reduced”. Moreover, the “efficacy in combination with anti-PD-1 therapy” value in the data set on 4T1 (same 4T1 model, combined with anti-PD-1) was “enhanced the efficacy of anti-PD-1 monotherapy”.
